From patent publication US20230011571A1, “SMALL MOLECULE FURIN INHIBITORS FOR TREATING INFECTIOUS DISEASES” (BP Asset V, Inc., priority 2019, published 2023)

Legend:
Format in all cases: cell-based
[1] = system: Chikungunya virus (CHIKV); assay: microbe, parasite or virus in culture; details: Chikungunya virus, Vero, 48 h, read-out: Percent viral inhibition CHKV
dengue virus (DENV) = assay: microbe, parasite or virus in culture; details: Dengue virus, Vero, 120 h, read-out: Percent viral inhibition DENY
Marburg virus (MARV) = assay: organism not typed; details: Vero, 72 h, read-out: Percent viral inhibition MARV

| Compound | inhibition at 1 µM [1] [%] | inhibition at 1 µM (dengue virus (DENV)) [%] | inhibition at 1 µM (Marburg virus (MARV)) [%] |
| --- | --- | --- | --- |
| CN1CCN(c2ncc(Oc3cc(CN4CCC(OC(C)(C)C(=O)O)CC4)cc(-c4cc(Cl)cc(Cl)c4)n3)cn2)CC1 [Example 225, 2-((1-((2-(3,5-dichlorophenyl)-6-((2-(4-methylpiperazin-1-yl)pyrimidin-5-yl)oxy)pyridin-4-yl)methyl)piperidin-4-yl)oxy)-2-methylpropanoic acid] | 24.2 | 33.3 | 52.3 |
| CN1CCN(c2ncc(Oc3cc(CN4CCC(CC(=O)O)CC4)cc(-c4cc(Cl)cc(Cl)c4)n3)cn2)CC(O)C1 (stereo not drawn) [Example 226, 2-(1-((2-(3,5-dichlorophenyl)-6-((2-(6-hydroxy-4-methyl-1,4-diazepan-1-yl)pyrimidin-5-yl)oxy)pyridin-4-yl)methyl)piperidin-4-yl)acetic acid] | 26.7 | 58.9 | 41.4 |
| CN(C)C1CCN(c2ncc(Oc3cc(CN4CCC(CC(=O)O)CC4)cc(-c4cc(Cl)cc(Cl)c4)n3)cn2)CC1 [Example 227, 2-(1-((2-(3,5-dichlorophenyl)-6-((2-(4-(dimethylamino)piperidin-1-yl)pyrimidin-5-yl)oxy)pyridin-4-yl)methyl)piperidin-4-yl)acetic acid] | 40.5 | 54 | 54.5 |
| CN1C2CC1CN(c1ncc(Oc3cc(CN4CCC(CC(=O)O)CC4)cc(-c4cc(Cl)cc(Cl)c4)n3)cn1)C2 [Example 228, 2-(1-((2-(3,5-dichlorophenyl)-6-((2-(6-methyl-3,6-diazabicyclo[3.1.l]heptan-3-yl)pyrimidin-5-yl)oxy)pyridin-4-yl)methyl)piperidin-4-yl)acetic acid] | 17.3 | 31.9 | 36.2 |
| O=C(O)CC1CCN(Cc2cc(Oc3cnc(N4CCN(CC5(O)CC5)CC4)nc3)nc(-c3cc(Cl)cc(Cl)c3)c2)CC1 [Example 229, 2-(1-((2-(3,5-dichlorophenyl)-6-((2-(4-((1-hydroxycyclopropyl)methyl)piperazin-1-yl)pyrimidin-5-yl)oxy)pyridin-4-yl)methyl)piperidin-4-yl)acetic acid] | 43.2 | 54.8 | 23.7 |
| CN1C[C@@H]2C[C@H]1CN2c1ncc(Oc2cc(CN3CCC(CC(=O)O)CC3)cc(-c3cc(Cl)cc(Cl)c3)n2)cn1 [Example 231, 2-(1-((2-(3,5-dichlorophenyl)-6-((2-((1S,4S)-5-methyl-2,5-diazabicyclo[2.2.1]heptan-2-yl)pyrimidin-5-yl)oxy)pyridin-4-yl)methyl)piperidin-4-yl)acetic acid] | 25.8 | 44.2 | 66.6 |
| CCN1C[C@@H]2C[C@H]1CN2c1ncc(Oc2cc(CN3CCC(CC(=O)O)CC3)cc(-c3cc(Cl)cc(Cl)c3)n2)cn1 [Example 232, 2-(1-((2-(3,5-dichlorophenyl)-6-((2-((1S,4S)-5-ethyl-2,5-diazabicyclo[2.2.1]heptan-2-yl)pyrimidin-5-yl)oxy)pyridin-4-yl)methyl)piperidin-4-yl)acetic acid] | 37.1 | 19.5 | 43.4 |
| O=C(O)CC1CCN(Cc2cc(Oc3cnc(N4CCN(C5CC5)CC4)nc3)nc(-c3cc(Cl)cc(Cl)c3)c2)CC1 [Example 233, 2-(1-((2-((2-(4-cyclopropylpiperazin-1-yl)pyrimidin-5-yl)oxy)-6-(3,5-dichlorophenyl)pyridin-4-yl)methyl)piperidin-4-yl)acetic acid] | 16.3 | 55.7 | 57.1 |
| CCN1CCN(c2ncc(Oc3cc(CN4CCC(CC(=O)O)CC4)cc(-c4cc(Cl)cc(Cl)c4)n3)cn2)CC1 [Example 234, 2-(1-((2-(3,5-dichlorophenyl)-6-((2-(4-ethylpiperazin-1-yl)pyrimidin-5-yl)oxy)pyridin-4-yl)methyl)piperidin-4-yl)acetic acid] | 26.7 | 36.9 | 49.1 |
| CC(C)N1CCN(c2ncc(Oc3cc(CN4CCC(CC(=O)O)CC4)cc(-c4cc(Cl)cc(Cl)c4)n3)cn2)CC1 [Example 235, 2-(1-((2-(3,5-dichlorophenyl)-6-((2-(4-isopropylpiperazin-1-yl)pyrimidin-5-yl)oxy)pyridin-4-yl)methyl)piperidin-4-yl)acetic acid] | 27.4 | 0 | 69.8 |
| O=C(O)CC1CCN(Cc2cc(Oc3cnc(N4CCN(CCF)CC4)nc3)nc(-c3cc(Cl)cc(Cl)c3)c2)CC1 [Example 236, 2-(1-((2-(3,5-dichlorophenyl)-6-((2-(4-(2-fluoroethyl)piperazin-1-yl)pyrimidin-5-yl)oxy)pyridin-4-yl)methyl)piperidin-4-yl)acetic acid] | 39.8 | 64.5 | 68.5 |
| CC(O)CCN1CCN(c2ncc(Oc3cc(CN4CCC(CC(=O)O)CC4)cc(-c4cc(Cl)cc(Cl)c4)n3)cn2)CC1 (stereo not drawn) [Example 237, 2-(1-((2-(3,5-dichlorophenyl)-6-((2-(4-(3-hydroxybutyl)piperazin-1-yl)pyrimidin-5-yl)oxy)pyridin-4-yl)methyl)piperidin-4-yl)acetic acid] | 37 | 52.1 | 37.7 |
| CC(CCO)N1CCN(c2ncc(Oc3cc(CN4CCC(CC(=O)O)CC4)cc(-c4cc(Cl)cc(Cl)c4)n3)cn2)CC1 (stereo not drawn) [Example 238, 2-(1-((2-(3,5-dichlorophenyl)-6-((2-(4-(4-hydroxybutan-2-yl)piperazin-1-yl)pyrimidin-5-yl)oxy)pyridin-4-yl)methyl)piperidin-4-yl)acetic acid] | 35.8 | 66.1 | 56.8 |
| CC(CCN(C)C)N1CCN(c2ncc(Oc3cc(CN4CCC(CC(=O)O)CC4)cc(-c4cc(Cl)cc(Cl)c4)n3)cn2)CC1 (stereo not drawn) [Example 240, 2-(1-((2-(3,5-dichlorophenyl)-6-((2-(4-(4-(dimethylamino)butan-2-yl)piperazin-1-yl)pyrimidin-5-yl)oxy)pyridin-4-yl)methyl)piperidin-4-yl)acetic acid] | 28.5 | 36.8 | 67.4 |
| CNC(=O)OCCN1CCN(c2ncc(Oc3cc(CN4CCC(CC(=O)O)CC4)cc(-c4cc(Cl)cc(Cl)c4)n3)cn2)CC1 [Example 241, 2-(1-((2-(3,5-dichlorophenyl)-6-((2-(4-(2-((methylcarbamoyl)oxy)ethyl)piperazin-1-yl)pyrimidin-5-yl)oxy)pyridin-4-yl)methyl)piperidin-4-yl)acetic acid] | 32.4 | 43.4 | 73.1 |
| CS(=O)(=O)CCCN1CCN(c2ncc(Oc3cc(CN4CCC(CC(=O)O)CC4)cc(-c4cc(Cl)cc(Cl)c4)n3)cn2)CC1 [Example 242, 2-(1-((2-(3,5-dichlorophenyl)-6-((2-(4-(3-(methylsulfonyl)propyl)piperazin-1-yl)pyrimidin-5-yl)oxy)pyridin-4-yl)methyl)piperidin-4-yl)acetic acid] | 31.9 | 16.4 | 55.5 |
